The results in this text go back to a melting point compilation (Tetko et al.; mined from patent text by program, amines drawn as free bases though some values may be those of a salt).

As a reminder, the melting point is the temperature, or range, at which the solid turns liquid.

As for `Cc1ccc(-c2nc(Cc3cccc(CC(CO)CO)c3)c(C)o2)cc1`, the melting point was 114 to 115 °C. Under `Cc1[nH]c(=O)n(C2CCCCC2)c1-c1ccc(OCCC(C)C)cc1` stands 198 to 200 °C.

For `CCOC(=O)c1ncn(-c2cc(C(F)(F)F)ccc2[N+](=O)[O-])c1C`, the melting point worked out at 140 °C. With `COc1ccc(Oc2ccc3nc(COc4ccc(CC5SC(=O)NC5=O)cc4)n(C)c3c2)cc1` (stereo not given) the figure was 122 to 126 °C; with `CCOC(=O)C=Cc1cc(OC)ccc1-c1ccc(-c2ccc(OC)c(Cl)c2)c(C=O)c1`, 150 to 152 °C; with `CC(C)Nc1ncc2ccc(=O)n(C)c2n1`, 148 to 149 °C. Under `N#Cc1c(C(N)=O)c2n(c1C1CC1)CCN(C(=O)Nc1ccc(C(=O)O)cc1)C2` stands 279 to 280 °C; under `CN1CCCC1=NC(=O)Nc1ccc(C(F)(F)F)cc1`, 128 to 131 °C; under `Clc1ccc(C(OCCN2CCOCC2)(c2ccc(Cl)cc2)c2ccc(Cl)cc2)cc1`, 151 to 153 °C. `CCCCCCCCCCNC(=O)Nc1ccc(N(C)C)cc1C(=O)NCC1CCN(C(c2ccccc2)c2ccccc2)CC1` registered a melting point of 145 to 147 °C.

The molecule `COc1cc2cc3ncc(C#N)c(Nc4ccc(F)c(Cl)c4)c3cc2cc1OCCN1CCOCC1` registered a melting point of 205 to 210 °C. With `CNc1nc(C)c(-c2ccnc(Nc3cccc(S(=O)(=O)NCCO)c3)n2)s1` the figure was 189 to 190 °C; with `CNCCc1c[nH]c2ccc3c(=O)[nH]ccc3c12`, 160 °C; with `C[C@@H](O)Cn1ccc2cc(F)c(F)cc21`, 114 to 116 °C. Consider `CN(Cc1ccc(NC(=O)C2=Cc3cc(Br)ccc3N(C=O)CC2)cc1)C1CCOCC1`, for which the melting point lay in the range of 173 to 175 °C. Under `CN1CCCC(c2nc3cccnc3[nH]2)C1` (stereo not given) stands 141 to 144 °C.

Molecule `CCCCCCNC(=O)Oc1ccc2c(c1)CCCN2` gave a melting point of 100 °C. Under `O=Cc1cc(C#Cc2cccc(Br)c2)c[nH]1` stands 152 to 156 °C; under `COc1ccc(-c2ccc(C(C)=O)cc2)cc1C=O`, 136 to 138 °C; under `CN1CCN(C(=O)COc2cc(-c3ccccc3)nc3ccccc23)CC1=O`, 140 °C.

The molecule `CCCN(CCCCNC(=O)N1CCc2cc(OC)c(OC)cc2C1)C1CCc2ncsc2C1` (stereo not given) registered a melting point of 106 °C. For `O=C1COc2cc(Nc3ccc(O)cc3)ccc2N1`, the melting point fell in the range of 270 to 275 °C. Under `Cc1nnc2c(NC3CCCC3)nc3ccccc3n12` stands 196 to 198 °C; under `Nn1c(-c2cncc(Cl)c2)cc2ccccc21`, 154 to 156 °C; under `CC(C)(C)c1ccc(C=C(SC(=Cc2ccc(C(C)(C)C)cc2)S(=O)(=O)c2ccccc2)S(=O)(=O)c2ccccc2)cc1`, 57 to 58 °C. With `CCC(C)(C)Nc1c(NCc2ccc(F)cc2)c(=O)c1=O` the figure was 255 to 257 °C.

For the molecule `CC(C)OC(=O)Cn1c(=O)n(C)c(=O)n(-c2cc(N=c3sc(=S)n4n3CCC=C4)c(F)cc2Cl)c1=O`, the melting point was in the range of 105 to 113 °C.

`CC(C)(C)NS(=O)(=O)c1ccc2c(NS(=O)(=O)N3CCOCC3)cccc2c1O`: the melting point lay in the range of 105 to 110 °C. Under `O=S(=O)(c1ccc2nccnc2c1)c1cccc2cnccc12` stands 187 to 189 °C; under `CC1(C2CCC3C4CC=C5CC(O)CC(O)C5(C)C4CCC32C)OCCO1` (stereo not given), 203 to 207 °C; under `OCCc1cnc(Nc2n[nH]c3ccc(-c4ncccc4Cl)cc23)s1`, 206 to 208 °C. Under `Nc1cc([N+](=O)[O-])c(N)cc1Cl` stands 157 °C; under `O=C(O)c1ccccc1Sc1c(O)c2ccc(Cl)cc2[nH]c1=O`, greater than 300 °C; under `CNC(=NS(C)(=O)=O)NCCCCCc1nc(N)nc(N)n1`, 194 to 195 °C.

For `C/C(=C\C(=O)NCc1cccnc1)c1ccc(OCC(=O)O)cc1`, the melting point was 228 to 229 °C.

Regarding `COc1cc(Cl)c2[nH]c(=O)[nH]c(=O)c2c1OC`, the melting point was in the range of 282 to 284 °C.

With `CCN(CC)CCn1cc(C(=O)NCc2ccc(Cl)cc2)c(=O)c2cc(CCCO)sc21`, the melting point is 111 to 114 °C. With `CC(=C(c1ccc(F)cc1)c1ccc(F)cc1)P(c1ccccc1)c1ccccc1` the figure was 88 to 90 °C.

Molecule `CCCc1nc2c(N)nc3ccccc3c2n1CCC(=O)NC` came in with a melting point of 177 to 178 °C. As for `O=C(NCCc1ccccn1)c1ccc(S(=O)(=O)Nc2cccc3c(Cl)c[nH]c23)cc1`, the melting point fell in the range of 220 to 222 °C. Under `OC1C2CCN(CC2)C1C#Cc1ccc(-c2cccnc2)cc1` (stereo not given) stands 189 to 190 °C; under `ON=Cc1sc(Cl)nc1Cl`, 160 °C; under `Cn1cc(C(=O)Nc2ccccc2-c2ccc(F)c(Cl)c2)c(CF)n1`, 133 to 134 °C.

The molecule `CCOC(=O)CCc1cc(-c2ccccc2)nn1Cc1ccc(Cl)cc1Cl` displayed a melting point of 91 to 93 °C. Under `Cc1nc(Cl)c2c(c1O)COC2CCc1ccccc1` (stereo not given) stands 193 °C. The molecule `CCCCCCCCCCCCCCC1CC1C(=O)O` (stereo not given) returned a melting point of 62 to 64 °C. As for `COC(=O)c1cc(F)c(N2CCC(N)C2)nc1Nc1ccc(F)cc1F` (stereo not given), the melting point was in the range of 139 to 140 °C. Under `O=C(O)CCc1cn(Cc2ccc(OCc3csc(-c4ccccc4)n3)cc2)cc1-c1ccccc1` stands 111 to 112 °C; under `CC(=O)OCC1Cc2cc(S(=O)(=O)N(C)C)c(Cl)c(Cl)c2O1` (stereo not given), 159 to 160 °C. Under `Clc1ccc2[nH]c(-c3ccccc3)c(CCN3CCCCC3)c2c1` stands 153 to 154 °C; under `OCCCc1ccncc1O`, 123 to 126 °C. Under `N#CC(C#N)=C1N(CCCN2CCCC2)CCN1CCN1CCCC1` stands 70 to 71 °C. As to `CCOC(=O)c1ccc(NCCOc2ccc(Br)cc2)cc1`, the melting point lay in the range of 128 to 133 °C.

Molecule `N#Cc1cc(S(=O)(=O)c2ccc(N)cc2)cc(Br)n1` gave a melting point of 186 to 188 °C.

Molecule `CCC(=O)N1CCC(NC(=O)Nc2cccc(Cl)c2)CC1` returned a melting point of 165 to 166 °C. The molecule `CC(C)Oc1ccc(CCCOc2cc(CCC(=O)O)n(-c3ccccc3)n2)c(Oc2ccc(C(F)(F)F)cn2)c1` gave a melting point of 80 to 82 °C. As for `C#Cc1cnn2c(C(F)(F)F)cc(-c3ccc(Cl)cc3)nc12`, the melting point lay in the range of 102 to 103 °C. With `CN(C1CCSCC1)S(=O)(=O)c1ccc(Nc2nccc(Nc3ccc(F)cc3)n2)cc1` the figure was 182 °C. In turn, `Cc1cc(-c2c[nH]c(C)n2)ccn1` came in with a melting point of 115 to 117 °C. With `Cc1cccc(C)c1NC(=O)CCSc1cc(C(C)(C)C)c(O)c(C(C)(C)C)c1` the figure was 142 to 144 °C; with `CC(C)(S)C(NC(=O)c1ccc(Cl)cc1)C(=O)O` (stereo not given), 174 °C; with `CC(=O)OC[C@H]1OC(OC(C)=O)[C@H](OC(C)=O)[C@@H](F)[C@@H]1OC(C)=O` (stereo not given in full), 115 to 121 °C.

`NC(=O)c1ccc(Nc2ccncc2)cc1` gave a melting point of 223 to 226 °C. With `CCOC(=O)NNC=Nc1nc(-c2ccc(C3CCCCC3)cc2)cs1` the figure was 188 to 189 °C; with `C[C@]12Cc3ccccc3[C@H]1Nc1ccccc12` (relative stereo), 72 °C. With `Cc1nc2cc(NC(=O)c3cc4cc(F)ccc4n3Cc3cccc(F)c3)ccn2c1-c1ccccc1` the figure was 217 to 218 °C; with `CN(C)S(=O)(=O)n1c(C(F)(F)F)nc2c(Br)cc(C(F)(F)F)cc21`, 147 °C; with `Fc1ccc(Cn2c(NC3CCN(CCc4cnccn4)CC3)nc3ccccc32)cc1`, 165 °C.

Regarding `CC(Oc1ccc(-c2ccc(S(N)(=O)=O)c(F)c2)cc1)C(O)CCc1cccnc1` (stereo not given), the melting point lay within 178 to 180 °C. Under `O=C(O)CCCCCNC(=NC(=O)OCc1ccccc1)NC(=O)OCc1ccccc1` stands 93 °C; under `CNC(=S)C1=CC(CF)(CF)Oc2cc(Cl)c(Cl)cc21`, 142 to 143 °C; under `CC(=O)Cc1nc(CN2CCCCC2)no1`, 66 to 67 °C. Under `CCCCCCC(O)CCCCCCCCCCC(=O)NCC(O)CNCCO` (stereo not given) stands 97.7 to 99.6 °C. With `Cc1cc(C)c(C(C)(C#N)c2nc(C)nc(Cl)c2C)c(C)c1` (stereo not given) the figure was 181 to 183 °C.

Molecule `COC(=O)/C=C/c1nc(C(=O)OC)ccc1OC` yielded a melting point of 123 to 126 °C. With `O=C1N=Nc2ccncc21` the figure was greater than 350 °C; with `COc1ccc(Oc2cc(Oc3ccc(OC)cc3)c(S(N)(=O)=O)cc2C(=O)O)cc1`, 246 to 248 °C. For `CC(C)(C)C(=O)OCc1nc2cc3c(cc2c(=O)[nH]1)C(=O)CC3`, the melting point was in the range of 185 to 190 °C.

Turning to `CCOC(=O)C(C(=O)C(C)C)C1c2nccnc2C(=O)N1c1ccc2ccc(Cl)nc2n1` (stereo not given), the melting point was 214 °C. Under `Cc1ccc(S(=O)(=S)OCCCCCCCCCCOS(=O)(=S)c2ccc(C)cc2)cc1` (stereo not given) stands 76 to 82 °C; under `CCOC(=O)C=Cc1cc(Br)cc(Cc2cccnc2)c1`, 81 to 83 °C; under `CCOC(=O)c1cn(-c2nc3ccccc3[nH]2)cn1`, 252 to 253 °C. With `CC(C)(C)NS(=O)(=O)c1cnc(-c2cn(-c3cc(-c4ccc(C(F)(F)F)cc4)cc(C(F)(F)F)n3)cn2)s1` the figure was 252 °C. With `OC12N=C(c3ccccc3)SC1Cc1cc(Cl)ccc12` (stereo not given) the figure was 155 °C; with `CCCC(=O)NC1C=CC(CO)C1` (stereo not given), 71 to 72 °C. `CC1(C)CCC(C)(C)c2cc(CCCn3cccn3)c(/C=C/c3ccc(C(=O)O)cc3)cc21`: the melting point was found to be 182 °C. Regarding `CCOC(=O)c1cn(C2CC2)c2c(C)c(N3CCN(Cc4ccccc4)C(C)C3)c(F)c(C)c2c1=O` (stereo not given), the melting point was 128 to 129 °C. Under `O=CC1c2ccccc2C(C=O)c2c(Cl)cccc21` (stereo not given) stands 144 to 146 °C. With `Cc1ccc(-c2n[nH]c3c2CCCC3)cc1` the figure was 57.4 to 59.9 °C; with `Cc1cccc2c(Cl)cc(C(F)(F)Cl)nc12`, 46 to 48 °C.
